We go through 18 compounds from patent publication US8389533B2, “Gem-disubstituted and spirocyclic amino pyridines/pyrimidines as cell cycle inhibitors” (Amgen Inc., priority 2008, dated 2013).

In one assay the target is Cdk4/CyclinD1 (Homo sapiens, UniProt P11802). The assay can be described thus: Cdk4 kinase inhibition assay (33P-ATP filter plate, Rb substrate). The assay is classed as biochemical. The following applies: recombinant Cdk4/CyclinD1, Rb substrate, 25 μM ATP, 1 hour room temperature; read-out: Cdk 4 IC50. How it is done:
(§1) The Cdk4 and Cdk6 inhibitory activity of the compounds is measured with a kinase inhibition assay using recombinant Cdk4/CyclinD1 or Cdk6/CyclinD3 protein complexes. The protein substrate used in the assay is the retinoblastoma protein (Rb). The kinase reactions are carried out in a 96-well filter plate (MSDV N6B50, Millipore). Compounds are serially diluted in kinase buffer (20 mM Tris-HCl, pH 7.4, 50 mM NaCl, 1 mM DTT, 1 mg/ml BSA) and added to the reaction mixture containing 2.5 ng/ml Cdk4/CyclinD1 or Cdk6/CyclinD3, 25 μM ATP, 10 μCi/ml [^33P]-ATP, 0.1 μg/ml Rb in the kinase buffer. The mixture is incubated at room temperature for 1 hour and the proteins precipitated with an equal volume of 20% TCA. The plates are washed with 10% TCA according to the manufacturer's instruction and dried at room temperature. The amount of the phosphorylated Rb is determined with a TopCount (PerkinElmer). The IC50 of a compound is determined by nonlinear regression curve fitting using software program Prism 5 (GraphPad Software).

Another assay concerns the target Cdk6/CyclinD3 (Homo sapiens, UniProt Q00534). The assay can be described thus: Cdk6 kinase inhibition assay (33P-ATP filter plate, Rb substrate). Type of assay: biochemical. The following applies: recombinant Cdk6/CyclinD3, Rb substrate, 25 μM ATP, 1 hour room temperature; read-out: Cdk 6 IC50. How it is done:
as §1

The IC50 is the concentration that gives 50% inhibition.

Cdk6/CyclinD3, sequence (Q00534 whole entry): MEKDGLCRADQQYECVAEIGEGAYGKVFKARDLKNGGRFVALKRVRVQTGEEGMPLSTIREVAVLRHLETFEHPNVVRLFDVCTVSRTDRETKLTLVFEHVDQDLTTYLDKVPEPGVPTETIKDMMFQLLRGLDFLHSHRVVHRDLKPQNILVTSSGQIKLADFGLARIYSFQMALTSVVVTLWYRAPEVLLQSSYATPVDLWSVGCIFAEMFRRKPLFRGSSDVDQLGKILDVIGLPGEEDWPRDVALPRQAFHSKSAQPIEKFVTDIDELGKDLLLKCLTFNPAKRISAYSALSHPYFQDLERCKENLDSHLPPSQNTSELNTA
Cdk6/CyclinD3, sequence (P30281 whole entry partner): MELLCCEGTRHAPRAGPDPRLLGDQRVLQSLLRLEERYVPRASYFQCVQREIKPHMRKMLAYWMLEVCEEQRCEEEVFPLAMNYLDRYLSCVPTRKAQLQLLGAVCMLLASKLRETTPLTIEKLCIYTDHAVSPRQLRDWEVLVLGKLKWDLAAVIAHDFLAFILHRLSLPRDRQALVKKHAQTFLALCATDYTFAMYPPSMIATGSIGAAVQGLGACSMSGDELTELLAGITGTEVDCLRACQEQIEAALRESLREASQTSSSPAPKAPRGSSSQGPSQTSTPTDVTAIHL
Cdk4/CyclinD1, sequence (P11802 whole entry): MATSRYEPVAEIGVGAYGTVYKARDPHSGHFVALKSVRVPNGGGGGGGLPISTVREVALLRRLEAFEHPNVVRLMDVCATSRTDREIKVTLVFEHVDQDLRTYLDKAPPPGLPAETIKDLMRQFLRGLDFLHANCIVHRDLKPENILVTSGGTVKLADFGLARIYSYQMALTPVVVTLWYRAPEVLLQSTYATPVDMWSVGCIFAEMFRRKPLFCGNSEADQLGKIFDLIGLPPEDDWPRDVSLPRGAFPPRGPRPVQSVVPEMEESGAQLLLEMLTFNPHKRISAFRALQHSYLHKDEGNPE
Cdk4/CyclinD1, sequence (P24385 whole entry partner): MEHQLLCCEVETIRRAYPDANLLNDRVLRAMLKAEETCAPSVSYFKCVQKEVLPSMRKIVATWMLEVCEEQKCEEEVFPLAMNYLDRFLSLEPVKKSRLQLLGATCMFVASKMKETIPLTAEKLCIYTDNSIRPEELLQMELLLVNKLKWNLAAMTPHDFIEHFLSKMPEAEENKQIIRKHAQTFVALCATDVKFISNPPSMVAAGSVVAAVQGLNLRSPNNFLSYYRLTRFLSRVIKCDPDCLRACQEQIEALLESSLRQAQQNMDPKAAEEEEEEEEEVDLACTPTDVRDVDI

Take `CC1(C)CCc2cnc(Nc3ccc(N4CCNCC4)cc3)nc21` [Example 49, 7,7-dimethyl-N-(4-(1-piperazinyl)phenyl)-6,7-dihydro-5H-cyclopenta[d]pyrimidin-2-amine]: the IC50 at Cdk4/CyclinD1 is 668 nM.

For `CS(=O)(=O)c1cccc2c1OC1(CCCCC1)c1nc(Nc3ccc(N4CCNCC4)cn3)ncc1-2` [Example 23, 7-(methylsulfonyl)-N-(5-(1-piperazinyl)-2-pyridinyl)spiro[chromeno[3,4-d]pyrimidine-5,1′-cyclohexan]-3-amine], the figures for the half-maximal inhibitory concentration (IC50) on Cdk4/CyclinD1 and at Cdk6/CyclinD3 were 2850 nM and 2620 nM, respectively.

Take `c1cnc2c(c1)OC1(CCOCC1)c1nc(Nc3ccc(N4CCNCC4)cc3)ncc1-2` [Example 25, N-(4-(1-piperazinyl)phenyl)-2,3,5,6-tetrahydrospiro[pyran-4,6′-pyrido[2′,3′:5,6]pyrano[3,4-d]pyrimidin]-8′-amine]: the figures for the 50% inhibitory concentration (IC50) at Cdk4/CyclinD1 and at Cdk6/CyclinD3 were 330 nM and 540 nM, respectively.

For `c1cnc2c(c1)-c1cnc(Nc3ccc(N4CCNCC4)cc3)nc1C1(CCCCC1)O2` [Example 29, N-(4-(1-piperazinyl)phenyl)spiro[cyclohexane-1,5′-pyrido[3′,2′:5,6]pyrano[3,4-d]pyrimidin]-3′-amine], the results for the concentration for half-maximal inhibition (IC50) at Cdk4/CyclinD1 and at Cdk6/CyclinD3 were 5.9 nM and 1.1 nM, respectively.

With `CC1(C)CC2(CCO1)Oc1ncccc1-c1cnc(Nc3ccc(N4CCNCC4)cc3)nc12` (racemic) [Example 35, (racemic)-2,2-dimethyl-N-(4-(1-piperazinyl)phenyl)-2,3,5,6-tetrahydrospiro[pyran-4,5′-pyrido[3′,2′:5,6]pyrano[3,4-d]pyrimidin]-3′-amine], the IC50 at Cdk4/CyclinD1 turned out to be 77 nM; at Cdk6/CyclinD3, 60 nM.

In the case of `CC1CC(O)C2(CC=CC2)c2nc(Nc3ccc(N4CCNCC4)cn3)ncc21` [Example 71, (7S)-5′-methyl-2′-((5-(1-piperazinyl)-2-pyridinyl)amino)-6′,7′-dihydro-5′H-spiro[cyclopent-3-ene-1,8′-quinazolin]-7′-ol], the IC50 on Cdk4/CyclinD1 was found to be 710 nM; at Cdk6/CyclinD3, 510 nM.

Regarding `O=C(c1csc(Nc2ncc3c(n2)C2(CCCCC2)c2cnccc2-3)n1)N1CCNCC1` [Example 48, N-(4-(1-piperazinylcarbonyl)-1,3-thiazol-2-yl)spiro[cyclohexane-1,9′-pyrido[4′,3′:3,4]cyclopenta[1,2-d]pyrimidin]-2′-amine], the half-maximal inhibitory concentration (IC50) came out at 44 nM at Cdk4/CyclinD1 and 266 nM on Cdk6/CyclinD3.

On to `c1cc2c(cn1)C1(CCOCC1)c1nc(Nc3ccc(N4CCNCC4)cn3)ncc1-2` [Example 63, N-(5-(1-piperazinyl)-2-pyridinyl)-2,3,5,6-tetrahydrospiro[pyran-4,9′-pyrido[4′,3′:3,4]cyclopenta[1,2-d]pyrimidin]-2′-amine], for which, on Cdk4/CyclinD1, the IC50 amounted to 410 nM.

With `OC1CCC2(CC1)Oc1ncccc1-c1cnc(Nc3ccc(N4CCNCC4)cn3)nc12` (mixture of isomers) [Example 40], the values for the IC50 at Cdk4/CyclinD1 and at Cdk6/CyclinD3 were 84 nM and 33 nM, respectively.

With `CC1(C)CCC2(CC1)Oc1ncccc1-c1cnc(Nc3ccc(N4CCNCC4)cn3)nc12` [Example 27, 4,4-dimethyl-N-(5-(1-piperazinyl)-2-pyridinyl)spiro[cyclohexane-1,5′-pyrido[3′,3′:5,6]pyrano[3,4-d]pyrimidin]-3′-amine], the IC50 on Cdk4/CyclinD1 worked out at 74 nM; on Cdk6/CyclinD3 it was 68 nM.

Turning to `O=C1NC2(CCCCC2)c2nc(Nc3ccc(N4CCNCC4)cc3)ncc21` [Example 68, 2′-((4-(1-piperazinyl)phenyl)amino)spiro[cyclohexane-1,7′-pyrrolo[3,4-d]pyrimidin]-5′(6′H)-one], the IC50 at Cdk4/CyclinD1 was found to be 1140 nM.

On to `C[C@@H]1CC(=O)C2(CC=CC2)c2nc(Nc3ccc(N4CCNCC4)cn3)ncc21` [Example 74, (5′R)-5′-methyl-2′-((5-(1-piperazinyl)-2-pyridinyl)amino)-5′,6′-dihydro-7′H-spiro[cyclopent-3-ene-1,8′-quinazolin]-7′-one], for which the IC50 stood at 3500 nM at Cdk4/CyclinD1 and 1800 nM on Cdk6/CyclinD3.

Take `CN(C)C1CCN(c2ccc(Nc3ncc4c(n3)C3(C=CC(C)(C)CC3)c3cnccc3-4)nn2)CC1` (racemic) [Example 76, (racemic)-4,4-dimethyl-N-(6-(4-(dimethylamino)piperidin-1-yl)-pyridazin-3-yl)spiro[cyclohex-2-ene-1,9′-pyrido[4′,3′:3,4]cyclopenta[1,2-d]pyrimidin]-2′-amine]: the IC50 was 14.6 nM on Cdk4/CyclinD1 and 205 nM on Cdk6/CyclinD3.

For the compound `c1ccc2c(c1)-c1cnc(Nc3ccc(N4CCNCC4)cc3)nc1C21CCNCC1` [Example 50, N-(4-(1-piperazinyl)phenyl)spiro[indeno[2,1-d]pyrimidine-9,4′-piperidin]-2-amine], the IC50 on Cdk4/CyclinD1 worked out at 56.2 nM; on Cdk6/CyclinD3, 81 nM.

Turning to `CN1CCN(c2ccc(Nc3ncc4c(n3)C3(CCCCC3)Oc3ccccc3-4)cc2)CC1` [Example 3, N-(4-(4-methyl-1-piperazinyl)phenyl)spiro[chromeno[3,4-d]pyrimidine-5,1′-cyclohexan]-3-amine], the half-maximal inhibitory concentration (IC50) on Cdk4/CyclinD1 and at Cdk6/CyclinD3 was 14.2 nM each time.

Take `CC1=CC(=O)C2(CCCC2)c2nc(Nc3ccc(N4CCNCC4)cn3)ncc21` [Example 73, 5′-methyl-2′-((5-(1-piperazinyl)-2-pyridinyl)amino)-7′H-spiro[cyclopentane-1,8′-quinazolin]-7′-one]: the IC50 at Cdk4/CyclinD1 amounted to 2500 nM.

Regarding `CC1(C)C=CC2(CC1)c1cnccc1-c1cnc(Nc3ccc(N4CCNCC4)cc3)nc12` (racemic) [Example 44, (racemic)-4,4-dimethyl-N-(4-(1-piperazinyl)phenyl)spiro[cyclohex-2-ene-1,9′-pyrido[4′,3′:3,4]cyclopenta[1,2-d]pyrimidin]-2′-amine], the half-inhibitory concentration (IC50) is 0.8 nM at Cdk4/CyclinD1 and 27 nM at Cdk6/CyclinD3.

`c1ccc2c(c1)OC1(CCCC1)c1nc(Nc3ccc(N4CCNCC4)cn3)ncc1-2` [Example 15, N-(5-(1-piperazinyl)-2-pyridinyl)spiro[chromeno[3,4-d]pyrimidine-5,1′-cyclopentan]-3-amine]: the half-maximal inhibitory concentration (IC50) is 84 nM on Cdk4/CyclinD1 and 13.5 nM at Cdk6/CyclinD3.
